Where a name gives a salt, the structure may show the parent alone. Read-outs that look alike come from different tables or passages of the source.
Test system: LMP1 expression in Kem I cells
Assay: microbe, parasite or virus in culture
Assay type: cell-based, EBV
Conditions: for fold induction at 2.5 µM: human gammaherpesvirus 4, 48 h
[1] = Kem I cells, 2.5 uM, 48 hours, average of replicates 1 and 2
[2] = Kem I cells, 2.5 uM, 48 hours, fold change in LMP1 transcript vs vehicle
[3] = read-out: Average LMP1 Fold Increase, Kem I cells, 2.5 uM, 48 hours, average of replicates 1 and 2
[4] = read-out: Replicate 1-LMP1 Fold Increase, Kem I cells, 2.5 uM, 48 hours, fold change in LMP1 transcript vs vehicle
[5] = read-out: Replicate 2-LMP1 Fold Increase, Kem I cells, 2.5 uM, 48 hours, fold change in LMP1 transcript vs vehicle

Row | SMILES | Average LMP1 Fold Increase [1] | Replicate 1-LMP1 Fold Increase [2] | Replicate 2-LMP1 Fold Increase [2] | also measured
1 | CC(C)N(CC[C@H](c1ccccc1)c1cc(CO)ccc1O)C(C)C | 0.36 | 0.49 | 0.23 | –
2 | O=[N+]([O-])C=Cc1ccc2c(c1)OCO2 | 1.11 | 0.54 | 1.68 | –
3 | O=C(O)C(Cc1ccccc1[N+](=O)[O-])=NNc1nc(-c2ccc(Cl)c(Cl)c2)cs1 (mixture of isomers) [4EGI-1] | 0.64 | 0.41 | 0.86 | –
4 | Fc1cc(F)c2c(c1)[C@H]1C=CC[C@H]1C(c1cccnc1)N2 (mixture of isomers) [Golgicide A] | 0.27 | 0.34 | 0.19 | –
5 | C[C@H]1COC2(CCN(c3nc(=O)c4cc(C(F)(F)F)cc([N+](=O)[O-])c4s3)CC2)O1 (racemic) [BTZ043 Racemate] | 0.64 | 0.62 | 0.67 | –
6 | Cl.N[C@@H]1C[C@H]1c1ccccc1 (racemic) [Tranylcypromine (2-PCPA) HCl] | – | – | – | Average LMP1 Fold Increase: 0.33 fold; Replicate 1-LMP1 Fold Increase: 0.22 fold; Replicate 2-LMP1 Fold Increase: 0.45 fold
7 | COc1cc2c(cc1O)CC[C@@H]1[C@@H]2CC[C@]2(C)[C@@H](O)CC[C@@H]12 [2-Methoxyestradiol (2-MeOE2)] | 1.00 | 0.65 | 1.34 | –
8 | O=C(O)c1ccc(N2C(=O)/C(=C\c3ccc(-c4ccc([N+](=O)[O-])cc4)o3)C=C2c2ccccc2)cc1 [4E1RCat] | 0.71 | 0.30 | 1.12 | –
9 | C=CCNC1=C2C[C@@H](C)C[C@H](OC)[C@H](O)[C@@H](C)/C=C(\C)[C@H](OC(N)=O)[C@@H](OC)/C=C\C=C(/C)C(=O)NC(=CC1=O)C2=O [17-AAG (Tanespimycin)] | 0.45 | 0.36 | 0.55 | –
10 | CN1CCc2cc3c(cc2[C@H]1[C@@H]1OC(=O)c2c1ccc1c2OCO1)OCO3 [(+)-Bicuculline] | 0.89 | 0.86 | 0.93 | –
11 | C[C@H](Oc1cc(-c2cnn(C3CCNCC3)c2)cnc1N)c1c(Cl)ccc(F)c1Cl [(S)-crizotinib] | 0.70 | 0.57 | 0.84 | –
12 | C=C1C(=O)O[C@H]2[C@H]1CC/C(C)=C/CC[C@@]1(C)O[C@@H]21 [(−)-Parthenolide] | 0.57 | 0.26 | 0.87 | –
13 | N#Cc1c(O)c2c(-c3ccc(-c4ccccc4O)cc3)csc2[nH]c1=O [A-769662] | 0.40 | 0.41 | 0.39 | –
14 | CC1(C)CCC(CN2CCN(c3ccc(C(=O)NS(=O)(=O)c4ccc(NCC5CCOCC5)c([N+](=O)[O-])c4)c(Oc4cnc5[nH]ccc5c4)c3)CC2)=C(c2ccc(Cl)cc2)C1 [ABT-199 (GDC-0199)] | 0.75 | 0.51 | 0.98 | –
15 | CC1(C)CCC(c2ccc(Cl)cc2)=C(CN2CCN(c3ccc(C(=O)NS(=O)(=O)c4ccc(N[C@H](CCN5CCOCC5)CSc5ccccc5)c(S(=O)(=O)C(F)(F)F)c4)cc3)CC2)C1 [ABT-263 (Navitoclax)] | 0.27 | 0.21 | 0.33 | –
16 | CCN(CC)C(=O)c1ccc(C2=CC3(CCNCC3)Oc3cccc(O)c32)cc1 [ADL5859 HCl] | – | – | – | fold induction at 2.5 µM [3]: 1.02; fold induction at 2.5 µM [4]: 0.54; fold induction at 2.5 µM [5]: 1.5
17 | O=C(c1ccc(F)cc1)N1CCC[C@H](c2nc(-c3ccc(F)cc3)no2)C1 [ADX-47273] | 0.58 | 0.81 | 0.35 | –
18 | CN(C)Cc1ccc(-c2nc3cccc4c3n2CCNC4=O)cc1 [AG-14361] | 0.30 | 0.39 | 0.22 | –
19 | Cc1ccccc1C(C(=O)NC1CCCCC1)N(C(=O)Cn1ccnc1C)c1cccc(F)c1 (stereo not drawn) [AGI-5198] | – | – | – | fold induction at 2.5 µM [3]: 0.82; fold induction at 2.5 µM [4]: 0.71; fold induction at 2.5 µM [5]: 0.93

Row | SMILES | Average LMP1 Fold Increase [1] | Replicate 1-LMP1 Fold Increase [2] | Replicate 2-LMP1 Fold Increase [2] | also measured
20 | O=C(Nc1cccc(C(F)(F)F)c1)Nc1cc(S(=O)(=O)NC2CC2)ccc1-c1ccsc1 [AGI-6780] | – | – | – | fold induction at 2.5 µM [3]: 1.51; fold induction at 2.5 µM [4]: 0.42; fold induction at 2.5 µM [5]: 2.6
21 | CN1CCCCC1Cn1cc(C(=O)c2cc([N+](=O)[O-])ccc2I)c2ccccc21 (stereo not drawn) [AM1241] | 0.79 | 1.01 | 0.56 | –
22 | CC(=O)Nc1nc2c(Oc3cc(-c4ccc(C(F)(F)F)cc4)ncn3)cccc2s1 [AMG-517] | – | – | – | fold induction at 2.5 µM [3]: 0.52; fold induction at 2.5 µM [4]: 0.56; fold induction at 2.5 µM [5]: 0.48
23 | COc1cc(N2CCC(N3CCN(C)CC3)CC2)ccc1Nc1ncc(Cl)c(Nc2ccccc2P(C)(C)=O)n1 [AP26113] | – | – | – | fold induction at 2.5 µM [3]: 0.92; fold induction at 2.5 µM [4]: 1.07; fold induction at 2.5 µM [5]: 0.77
24 | O=C1NC(=O)/C(=C/c2ccc(-c3ccc(F)cc3O)o2)S1 [AS-252424] | 0.53 | 0.57 | 0.49 | –
25 | Cc1cc2c(C(C)C)c(O)c(O)c(C=O)c2c(O)c1-c1c(C)cc2c(C(C)C)c(O)c(O)c(C=O)c2c1O [AT101] | – | – | – | fold induction at 2.5 µM [3]: 1.04; fold induction at 2.5 µM [4]: 0.51; fold induction at 2.5 µM [5]: 1.58
26 | CCNC(=O)c1noc(-c2cc(C(C)C)c(O)cc2O)c1-c1ccc(CN2CCOCC2)cc1 [AUY922 (NVP-AUY922)] | 1.29 | 1.62 | 0.96 | –
27 | C=CC(=O)Nc1cccc(Nc2nc(Nc3ccc(OCCOC)cc3)ncc2F)c1 [AVL-292] | 0.52 | 0.48 | 0.56 | –
28 | C[C@@H]1COCCN1c1cc(C2(S(C)(=O)=O)CC2)nc(-c2cccc3[nH]ccc23)n1 [AZ20] | 1.39 | 1.56 | 1.22 | –
29 | COc1cc(N2CCN(C)CC2)ccc1Nc1nccc(-c2cn(C)c3cnccc23)n1 [AZ191] | 0.37 | 0.50 | 0.24 | –
30 | COc1cc(OC2CCN(C)CC2)ccc1Nc1ncc2c(n1)n(C1CCCC1)c(=O)n2C [AZ 3146] | 0.61 | 0.66 | 0.57 | –
31 | CC(=O)Nc1cccc2c1c(Sc1ccc(Cl)cc1)c(C)n2CC(=O)O [AZD1981] | 0.80 | 1.13 | 0.46 | –
32 | COC1CCN(C(=O)c2cc(Cc3n[nH]c(=O)c4ccccc34)ccc2F)CC1 [AZD2461] | 1.00 | 0.50 | 1.51 | –
33 | COc1cc(N2CCC(N)CC2)ccc1Nc1ncc(Cl)c(-c2c[nH]c3ccccc23)n1 [AZD3463] | 0.26 | 0.28 | 0.24 | –
34 | COc1cc(CCc2cc(NC(=O)c3ccc(N4CC(C)NC(C)C4)cc3)n[nH]2)cc(OC)c1 (stereo not drawn) [AZD4547] | 0.13 | 0.11 | 0.15 | –
35 | Cc1cc([C@@H](C)Nc2ccccc2C(=O)O)c2nc(N3CCOCC3)cc(=O)n2c1 [AZD6482] | 0.22 | 0.06 | 0.37 | –
36 | CN(C)C(=O)c1ccc(S(=O)(=O)c2ccc(NC(=O)[C@@](C)(O)C(F)(F)F)c(Cl)c2)cc1 [AZD7545] | 0.67 | 0.40 | 0.94 | –
37 | NC(=O)Nc1cc(-c2cccc(F)c2)sc1C(=O)N[C@H]1CCCNC1 [AZD7762] | 5.84 | 9.74 | 1.94 | –

Reference: patent US20230053688A1, “METHODS TO ALTER LATENCY IN EBV+ MALIGNANCIES” (Cornell University, priority 2020, published 2023)
